According to ChEMBL document CHEMBL5257092, “Synthesis and biological evaluation of biaryl alkyl ethers as inhibitors of IDO1” (Bioorg Med Chem Lett, 2023):

What was measured:
[1] = Metabolic stability in mouse liver microsomes assessed as compound remaining at 0.5 uM incubated for 10 mins relative to control; format: ADME, Microsome; settings: microsomes, 10 min, 0.5 µM
[2] = biological target: Indoleamine 2,3-dioxygenase 1 (Homo sapiens, UniProt P14902); experiment: Inhibition of IDO1 (unknown origin) expressed in human HeLa cells; format: cell-based
[3] = Metabolic stability in rat liver microsomes assessed as compound remaining at 0.5 uM incubated for 10 mins relative to control; format: ADME, Microsome; settings: microsomes, 10 min, 0.5 µM
[4] = biological target: Voltage-gated inwardly rectifying potassium channel KCNH2 (Homo sapiens, UniProt Q12809); experiment: Inhibition of hERG at 10 uM relative to control; format: toxicity; settings: 10 µM
[5] = biological target: Tryptophan 2,3-dioxygenase (Homo sapiens, UniProt P48775); experiment: Inhibition of TDO (unknown origin) expressed in HEK cells; format: cell-based; settings: hek
[6] = Metabolic stability in human liver microsomes assessed as compound remaining at 0.5 uM incubated for 10 mins relative to control; format: ADME, Microsome; settings: microsomes, 10 min, 0.5 µM
[7] = biological target: T1, Cytochrome P450 2B6 (Homo sapiens, UniProt P20813); experiment: Inhibition of CYP2B6 (unknown origin); format: ADME
T1 sequence (P20813 whole entry): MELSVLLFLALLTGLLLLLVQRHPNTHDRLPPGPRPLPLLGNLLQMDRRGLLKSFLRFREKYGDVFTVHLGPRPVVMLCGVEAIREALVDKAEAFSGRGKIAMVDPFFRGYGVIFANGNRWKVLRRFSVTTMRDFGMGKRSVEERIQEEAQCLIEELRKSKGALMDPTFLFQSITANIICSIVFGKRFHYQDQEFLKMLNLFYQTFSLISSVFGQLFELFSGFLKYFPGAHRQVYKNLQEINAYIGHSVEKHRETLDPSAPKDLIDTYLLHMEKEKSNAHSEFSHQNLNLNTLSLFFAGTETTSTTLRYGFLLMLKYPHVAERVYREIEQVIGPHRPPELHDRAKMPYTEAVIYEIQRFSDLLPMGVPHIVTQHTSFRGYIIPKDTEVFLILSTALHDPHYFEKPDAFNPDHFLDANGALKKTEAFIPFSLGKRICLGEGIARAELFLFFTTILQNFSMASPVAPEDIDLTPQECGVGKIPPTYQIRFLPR

Sequence of Indoleamine 2,3-dioxygenase 1 (P14902 whole entry): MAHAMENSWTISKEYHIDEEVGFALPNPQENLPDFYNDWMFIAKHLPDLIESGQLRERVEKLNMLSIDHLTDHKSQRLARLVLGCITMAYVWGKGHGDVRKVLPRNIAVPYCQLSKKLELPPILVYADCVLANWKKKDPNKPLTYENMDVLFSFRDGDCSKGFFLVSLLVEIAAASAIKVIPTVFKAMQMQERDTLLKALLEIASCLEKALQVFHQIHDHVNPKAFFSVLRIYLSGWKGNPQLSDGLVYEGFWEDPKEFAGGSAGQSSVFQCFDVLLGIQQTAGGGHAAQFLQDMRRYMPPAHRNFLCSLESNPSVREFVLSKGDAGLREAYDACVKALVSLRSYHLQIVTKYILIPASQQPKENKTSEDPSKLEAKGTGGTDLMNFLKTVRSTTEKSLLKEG
Sequence of Voltage-gated inwardly rectifying potassium channel KCNH2 (Q12809 whole entry): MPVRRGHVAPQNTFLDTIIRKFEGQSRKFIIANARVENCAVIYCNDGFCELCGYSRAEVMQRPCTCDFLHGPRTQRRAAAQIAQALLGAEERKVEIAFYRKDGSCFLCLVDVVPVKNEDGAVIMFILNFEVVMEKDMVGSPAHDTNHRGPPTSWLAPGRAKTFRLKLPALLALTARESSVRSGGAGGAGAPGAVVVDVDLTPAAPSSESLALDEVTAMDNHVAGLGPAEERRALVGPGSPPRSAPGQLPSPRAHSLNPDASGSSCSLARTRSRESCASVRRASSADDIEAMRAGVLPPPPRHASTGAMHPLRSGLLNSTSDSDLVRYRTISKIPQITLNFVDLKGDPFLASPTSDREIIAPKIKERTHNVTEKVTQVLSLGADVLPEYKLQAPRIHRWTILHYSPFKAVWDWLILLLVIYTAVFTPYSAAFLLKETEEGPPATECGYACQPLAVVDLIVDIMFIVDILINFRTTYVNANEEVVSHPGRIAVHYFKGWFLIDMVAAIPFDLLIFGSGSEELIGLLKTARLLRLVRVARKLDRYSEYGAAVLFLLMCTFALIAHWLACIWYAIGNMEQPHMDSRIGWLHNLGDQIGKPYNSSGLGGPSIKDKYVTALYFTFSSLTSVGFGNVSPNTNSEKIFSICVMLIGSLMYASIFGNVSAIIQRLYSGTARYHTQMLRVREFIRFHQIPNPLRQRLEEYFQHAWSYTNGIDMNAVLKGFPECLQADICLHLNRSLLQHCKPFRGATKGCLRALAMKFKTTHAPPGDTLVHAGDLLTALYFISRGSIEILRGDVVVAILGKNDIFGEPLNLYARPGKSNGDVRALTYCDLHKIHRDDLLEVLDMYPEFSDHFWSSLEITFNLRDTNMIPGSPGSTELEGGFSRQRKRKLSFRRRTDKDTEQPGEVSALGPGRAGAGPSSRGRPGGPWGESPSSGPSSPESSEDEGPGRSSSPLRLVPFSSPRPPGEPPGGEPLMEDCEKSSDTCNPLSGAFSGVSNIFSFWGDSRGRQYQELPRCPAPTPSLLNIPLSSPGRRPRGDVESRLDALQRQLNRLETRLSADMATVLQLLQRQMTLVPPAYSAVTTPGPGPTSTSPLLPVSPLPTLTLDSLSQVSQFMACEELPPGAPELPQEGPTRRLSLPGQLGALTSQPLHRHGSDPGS
Sequence of Tryptophan 2,3-dioxygenase (P48775 whole entry): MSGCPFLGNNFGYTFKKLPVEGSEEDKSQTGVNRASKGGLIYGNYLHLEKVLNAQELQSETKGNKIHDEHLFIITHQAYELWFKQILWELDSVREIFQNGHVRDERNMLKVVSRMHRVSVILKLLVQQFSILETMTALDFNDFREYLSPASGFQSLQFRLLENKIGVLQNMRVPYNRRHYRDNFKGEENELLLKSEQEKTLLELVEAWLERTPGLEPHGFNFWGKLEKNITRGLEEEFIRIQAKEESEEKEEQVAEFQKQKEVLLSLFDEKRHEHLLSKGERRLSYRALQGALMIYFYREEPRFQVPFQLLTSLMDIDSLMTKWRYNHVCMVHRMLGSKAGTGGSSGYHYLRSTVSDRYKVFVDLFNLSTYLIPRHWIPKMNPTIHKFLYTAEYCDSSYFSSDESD

Q: With Cc1ccc(NC(=O)Nc2cc(-c3ccccc3-c3nc(=O)[nH]o3)cc3c2OCCCC3c2ccccc2)cc1 (stereo in doubt; 20) as the compound, how does the Stability [1] read?
A: The Stability was 40%.

Q: And the IC50 [2]?
A: Its IC50 is 4.6 nM.

Q: What about the Stability [3] of the same compound?
A: Its Stability is 38%.

Q: What about the “inhibition (INH)” value [4] of the same compound?
A: The value was 18%.

Q: And the IC50 [5]?
A: The IC50 was over 6 µM.

Q: And the Stability [6]?
A: The Stability was 73%.

Q: What about the IC50 [7] of the same compound?
A: Its IC50 is 780 nM.
